Data taken from patent publication US12286423B2, “Antiviral 1,3-di-oxo-indene compounds” (Novartis AG, priority 2020, dated 2025).

Tests used:
Format in all cases: cell-based
HRV A16 = HRV A16 CPE inhibition assay; conditions: Human rhinovirus sp.; HRV A16, cytopathic effect inhibition
Description: (§1) Bioactivity of the Compounds of the Invention was Determined Using the Following Methods. Determination of Drug Efficacy Against Picornaviruses Using Cytopathic Effect (CPE) Inhibition Assay
(§2) In the assay, HeLa (human cervical cancer cells), MRC-5 (human fetal lung fibroblast cells), and RD cells (derived from human rhabdomyosarcoma) were employed. For comparison, ribavirin (Riv), Pleconaril (pleco), and […] (BTA) were used as controls. Reagents were dissolved at a concentration of 10-40 mg/ml in 100% dimethyl sulfoxide (DMSO). Water-soluble reagents were dissolved in PBS (−) solution and stored at −20° C. On the day of the experiment, they were used in 3 fold to 5 fold concentrations in such a manner that the concentration of dimethyl sulfoxide in each well was between 0.5% and 1%.
(§3) Pharmaceutical efficacy was determined using a virus-induced cytopathic effect (CPE) inhibition assay. In this regard, after cells suitable for viruses were grown in 96-well plates, dilutions of viruses in DME supplemented with 2% FBS (DME/2% FBS) or MEM supplemented with 2% FBS (MEM/2% FBS) were inoculated in an amount of […] with a concentration corresponding to 100 CCID50 (50% cell culture infective dose) into each well of the plates, and incubated for 30 min-1 hr at 33° C. or 37° C. to allow the viruses to adsorb onto the cells. The culture medium was removed before aliquots of drug dilutions with various concentrations were added in an amount of 100 μl to each well. While HRV (human rhinovirus) was grown at 33° C., the other viruses were incubated in a 37° C. CO2 incubator for 2-3 days. Alternatively, the cells were cultured for 2-3 days without removal of the medium after they were added with 50 μl of each drug dilution having a 2-fold higher concentration and then with 50 μl of the virus dilution. Viruses were incubated in host HeLa cells at 37° C. for 2-3 days in DME/2% or MEM/2% FBS.
(§4) For HeLa cells, the drugs were measured for EC50 (50% maximal effective concentration), which is the concentration of a drug inducing a response halfway between the baseline and maximum, using an MTT assay. With regard to RD and MRC-5 cells, CPE was determined using FDA (Fluorescein diacetate) or MTT. In order to determine the effect of drug toxicity on efficacy results, at the time of inoculation with the virus, mock-infection was also included. A virus-free medium was added to a cell culture, which was then subjected to the same treatment as the mock-infected cells inoculated with the virus. That is, the medium was removed after one hour of incubation, and dilutions of drugs in the medium were added once more. Following incubation for 2-3 days, the cells were observed under a microscope and the drugs were determined for CC50 (50% cytotoxic concentration) at which 50% of the cells were killed, using an MTT assay in which counts of viable cells in mock-infected wells containing drugs were compared to those of viable cells in control wells containing no drugs. In an FDA hydrolysis assay, FDA was added to each well after removal of the medium, and incubated for 20-30 min before fluorescence intensity was measured using a spectrofluorometer to determine CPE in the same manner as in MTT.
(§5) In addition, antiviral effects can be calculated using Mathematical Formula 2 below: Antiviral Effect=[A(Drug/Virus)−A(Virus Control)/A(Cell control)−A(Virus Control)]
(§6) If the survival rate is 100%, its antiviral effect is 100% whereas if the survival rate is 0%, its antiviral effect is none. […]
(§7) Specifically, cells grown to confluence in 96-well plates were infected with 100 50% cell culture infected doses (CCID50) of virus. After an adsorption period of 2 hrs at 37° C., the virus was removed and serial dilutions of the compounds were added. […] After removal of the medium, 90 μl of a culture medium and 10 μl of MTS-phenazine methosulfate (Promega, Leiden, The Netherlands) were added to each well. […]

HRV B14 = HRV B14 CPE inhibition assay; conditions: Human rhinovirus sp.; HRV B14, cytopathic effect inhibition
Description: as §1, §2, §3, §4, §5, §6, §7

C15_C3 REPLICON = experiment: C15_C3 replicon assay
[1] = Cytotoxicity (CC50) in mock-infected cells, MTT assay; conditions: human, HeLa cells (mock-infected), 50% cytotoxic concentration, read-out: CYTOTOX (CC50 μM)
Description: as §4
That is, the survival rate (% survival) of mock-infected cells for cytotoxicity measurement was calculated using the Mathematical Formula 1 below: Cell Drug=Survival by [A(Drug)−A(Background solution)/A(Cell control)−A(Background×100% Solution)]
While 100% cell survival means no cytotoxicity of the drug, the highest cytotoxicity is reflected by 0% cell survival. The 50% cytotoxic concentration was defined as the concentration required to reduce the cell number by 50%. This concentration of the drug is represented as CC50. Higher values mean lower cytotoxicity. […]
In Mathematical Formulae 3 and 4 above, • OD (CC) represents the OD of the background cell culture that is neither induced by a virus nor treated by chemical, • OD (VC) represents the OD of the control cell culture that is induced by a virus but not treated by chemical, • OD (Virus+Compound) represents the OD of the cell culture infected by a virus that has been treated with a concentrated compound, • OD (Compound) represents the OD of the cell culture that has been treated with a concentrated compound only, and • OD (Blank) represents the OD of the well to which only the cell culture has been added.
The effective concentration (EC50) represents the concentration of a drug at which 50% of cells are allowed to survive by CPE of an induced virus, and the cytotoxicity concentration (CC50) represents the concentration of a drug at which a compound has killed 50% of cells, and they were calculated by the logarithmic interpolation.

HRV A29 = HRV A29 CPE inhibition assay; conditions: Human rhinovirus sp.; HRV A29, cytopathic effect inhibition
Description: as §1, §2, §3, §4, §5, §6, §7

HRV A1B = HRV A1B CPE inhibition assay; conditions: Human rhinovirus sp., cytopathic effect inhibition, read-out: HRV A1B_CPE (EC50 μM)
Description: as §1, §2, §3, §4, §5, §6, §7

Structure (SMILES)	EC50 (HRV A16) [µM]	EC50 (HRV B14) [µM]	EC50 (C15_C3 REPLICON) [µM]	CC50 [1] [µM]	EC50 (HRV A29) [µM]	EC50 (HRV A1B) [µM]
Cc1c(C(=O)NC23C(=O)c4c(N)cccc4C2(O)Oc2cc(C(C)C)ccc23)[nH]c(S(=O)(=O)NCCN(C)C)c1C (stereo not drawn) [Example 4, N-(1-amino-4b-hydroxy-7-isopropyl-10-oxo-4b,10-dihydro-9bH-indeno[1,2-b]benzofuran-9b-yl)-5-(N-(2-(dimethylamino)ethyl)sulfamoyl)-3,4-dimethyl-1H-pyrrole-2-carboxamide]	0.056	0.016	2.39	8.58		
Cc1[nH]c(C(=O)NC23C(=O)c4c(N)cccc4C2(O)Oc2cc(C(C)C)ccc23)c(C)c1S(N)(=O)=O (stereo not drawn) [Example 25, N-(1-amino-4b-hydroxy-7-isopropyl-10-oxo-4b,10-dihydro-9bH-indeno[1,2-b]benzofuran-9b-yl)-3,5-dimethyl-4-sulfamoyl-1H-pyrrole-2-carboxamide]	0.14	0.016	2.04	27		
Cc1cc(S(=O)(=O)N2CCN(C)CC2)[nH]c1C(=O)N[C@]12C(=O)c3c(N)cccc3[C@@]1(O)Oc1cc(OC(C)C)ccc12 (single isomer, unassigned) [Example 19]	0.022		0.876	48.3	0.046	0.016
C[C@H](c1ccc2c(c1)O[C@]1(O)c3cccc(N)c3C(=O)[C@]21NC(=O)[C@H]([C@H](C)O)N(C)C)C1CC1 [Example 15, (2S,3S)—N-((4bR,9bR)-1-amino-7-((S)-1-cyclopropylethyl)-4b-hydroxy-10-oxo-4b,10-dihydro-9bH-indeno[1,2-b]benzofuran-9b-yl)-2-(dimethylamino)-3-hydroxybutanamide]	0.213	0.016	0.264	45.2		
CCC(C)c1ccc2c(c1)OC1(O)c3cccc(N)c3C(=O)C21NC(=O)c1[nH]cc(S(C)(=O)=O)c1C (stereo not drawn) [Example 23, N-(1-amino-7-(sec-butyl)-4b-hydroxy-10-oxo-4b,10-dihydro-9bH-indeno[1,2-b]benzofuran-9b-yl)-3-methyl-4-(methylsulfonyl)-1H-pyrrole-2-carboxamide]	0.071	0.016	0.633	22.4		
C[C@@H]1C[C@@H]1c1ccc2c(c1)O[C@]1(O)c3cccc(N)c3C(=O)[C@]21NC(=O)CN1CCC1 [Example 2, N-((4bR,9bR)-1-amino-4b-hydroxy-7-((1S,2R)-2-methylcyclopropyl)-10-oxo-4b,10-dihydro-9bH-indeno[1,2-b]benzofuran-9b-yl)-2-(azetidin-1-yl)acetamide]	0.092	0.016	0.853	27.3		
Cc1c(S(C)(=O)=O)c[nH]c1C(=O)NC12C(=O)c3c(N)cccc3C1(O)Oc1cc([C@@H]3C[C@@H]3C)ccc12 (stereo partly drawn) [Example 16, N-(1-amino-4b-hydroxy-7-((1R,2S)-2-methylcyclopropyl)-10-oxo-4b,10-dihydro-9bH-indeno[1,2-b]benzofuran-9b-yl)-3-methyl-4-(methylsulfonyl)-1H-pyrrole-2-carboxamide]	0.199	0.016	1.82	37.7	0.104	
C[C@H](O)[C@@H](C(=O)NC12C(=O)c3c(N)cccc3C1(O)Oc1cc([C@H](C)C3CC3)ccc12)N(C)C (stereo partly drawn) [Example 10, (2S,3S)—N-(1-amino-7-((R)-1-cyclopropylethyl)-4b-hydroxy-10-oxo-4b,10-dihydro-9bH-indeno[1,2-b]benzofuran-9b-yl)-2-(dimethylamino)-3-hydroxybutanamide]	0.661	0.016	0.632	29.2		
Cc1cc(S(=O)(=O)N2CCN(C)CC2)[nH]c1C(=O)NC12C(=O)c3c(N)cccc3C1(O)Oc1cc([C@H]3C[C@@H]3C)ccc12 (mixture of isomers) [Example 9, N-(1-Amino-4b-hydroxy-7-((trans)-2-methylcyclopropyl)-10-oxo-4b,10-dihydro-9bH-indeno[1,2-b]benzofuran-9b-yl)-3-methyl-5-((4-methylpiperazin-1-yl)sulfonyl)-1H-pyrrole-2-carboxamide]	0.02	0.016	1.09	25.6		
Cc1c(S(C)(=O)=O)c[nH]c1C(=O)NC12C(=O)c3c(N)cccc3C1(O)Oc1cc(C3CCC3C)ccc12 (stereo not drawn) [Example 7, N-(1-amino-4b-hydroxy-7-(2-methylcyclobutyl)-10-oxo-4b,10-dihydro-9bH-indeno[1,2-b]benzofuran-9b-yl)-3-methyl-4-(methylsulfonyl)-1H-pyrrole-2-carboxamide]	0.065		1.62	12		
Cc1c(S(C)(=O)=O)c[nH]c1C(=O)NC12C(=O)c3c(N)cccc3C1(O)Oc1cc([C@]3(C)C[C@@H]3C)ccc12 (stereo partly drawn) [Example 6, N-(1-amino-7-((1R,2S)-1,2-dimethylcyclopropyl)-4b-hydroxy-10-oxo-4b,10-dihydro-9bH-indeno[1,2-b]benzofuran-9b-yl)-3-methyl-4-(methylsulfonyl)-1H-pyrrole-2-carboxamide]	0.046	0.016	1.18	19.1		
Cc1cc(S(=O)(=O)N2CC[C@H](N(C)C)C2)[nH]c1C(=O)NC12C(=O)c3c(N)cccc3C1(O)Oc1cc([C@H]3C[C@@H]3C)ccc12 (mixture of isomers) [Example 11, N-(1-amino-4b-hydroxy-7-((1S,2S)-2-methylcyclopropyl)-10-oxo-4b,10-dihydro-9bH-indeno[1,2-b]benzofuran-9b-yl)-5-(((S)-3-(dimethylamino)pyrrolidin-1-yl)sulfonyl)-3-methyl-1H-pyrrole-2-carboxamide]	0.023	0.016	2.54	12.1		
Cc1c(S(C)(=O)=O)c[nH]c1C(=O)N[C@]12C(=O)c3c(N)cccc3[C@@]1(O)Oc1cc([C@@H]3C[C@H]3C)ccc12 [Example 1, N-((4bR,9bR)-1-amino-4b-hydroxy-7-((1R,2R)-2-methylcyclopropyl)-10-oxo-4b,10-dihydro-9bH-indeno[1,2-b]benzofuran-9b-yl)-3-methyl-4-(methylsulfonyl)-1H-pyrrole-2-carboxamide]	0.228	0.016	4	34.7	0.071	
